How the values were obtained:
[1] = test system: normal NK cells expanded with K562-aAPC; assay: percent inhibition of viability; higher = more inhibition; conditions: 72 h, IL-2 2.5 ng/mL
Description: (§1)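 Drug sensitivity and resistance testing on K562-aAPC-expanded normal NK cells: 5 concentrations (10-fold steps over a 10,000-fold range), 72 h at 37 °C, viability by CellTiter-Glo normalised to DMSO and benzethonium chloride controls; DSS from the fitted curve.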

DERL-7 (IL-2 2.5 ng/mL) [2] = assay: as above; conditions: 72 h
YT (IL-2 2.5 ng/mL) [3] = assay: as above; conditions: 72 h
IMC-1 (IL-2 20 ng/mL) [4] = assay: as above; conditions: 72 h
NKL (IL-2 2.5 ng/mL) [5] = assay: as above; conditions: 72 h
KAI3 (IL-2 2.5 ng/mL) [6] = assay: as above; conditions: 72 h
[7] = test system: normal primary NK cells, pool 1 (3 donors), resting (IL-2 0 ng/mL); assay: as above; conditions: 72 h
[8] = test system: normal primary NK cells, pool 1 (3 donors) (IL-2 2.5 ng/mL); assay: as above; conditions: 72 h
[9] = test system: normal primary NK cells, pool 3 (3 donors) (IL-2 2.5 ng/mL); assay: as above; conditions: 72 h
SNK-6 (IL-2 2.5 ng/mL) [10] = assay: as above; conditions: 72 h
KHYG-1 (IL-2 2.5 ng/mL) [11] = assay: as above; conditions: 72 h
NK-92 (IL-2 2.5 ng/mL) [12] = assay: as above; conditions: 72 h
NK-YS (IL-2 2.5 ng/mL) [13] = assay: as above; conditions: 72 h
[14] = test system: normal primary NK cells, pool 2 (3 donors) (IL-2 2.5 ng/mL); assay: as above; conditions: 72 h
[15] = test system: normal NK cells expanded with K562-aAPC; assay: drug sensitivity score (DSS) (DSS units); higher = more sensitive; extreme values may be limits of the assay; conditions: 72 h; IL-2 2.5 ng/mL
Description: as §1

DERL-7 (IL-2 2.5 ng/mL) [16] = assay: as above; conditions: 72 h
YT (IL-2 2.5 ng/mL) [17] = assay: as above; conditions: 72 h
IMC-1 (IL-2 20 ng/mL) [18] = assay: as above; conditions: 72 h
NKL (IL-2 2.5 ng/mL) [19] = assay: as above; conditions: 72 h
KAI3 (IL-2 2.5 ng/mL) [20] = assay: as above; conditions: 72 h
[21] = test system: normal primary NK cells, pool 1 (3 donors), resting (IL-2 0 ng/mL); assay: as above; conditions: 72 h
[22] = test system: normal primary NK cells, pool 1 (3 donors) (IL-2 2.5 ng/mL); assay: as above; conditions: 72 h
[23] = test system: normal primary NK cells, pool 3 (3 donors) (IL-2 2.5 ng/mL); assay: as above; conditions: 72 h
SNK-6 (IL-2 2.5 ng/mL) [24] = assay: as above; conditions: 72 h
KHYG-1 (IL-2 2.5 ng/mL) [25] = assay: as above; conditions: 72 h
NK-92 (IL-2 2.5 ng/mL) [26] = assay: as above; conditions: 72 h
NK-YS (IL-2 2.5 ng/mL) [27] = assay: as above; conditions: 72 h
[28] = test system: normal primary NK cells, pool 2 (3 donors) (IL-2 2.5 ng/mL); assay: as above; conditions: 72 h

O=S(=O)(c1cccc2c(O)nccc12)N1CCCNCC1 [Hydroxyfasudil] (max concentration tested 37500 nM)
percent inhibition of viability [%]
Conditions	3.75 nM	37.5 nM	375 nM	3750 nM	37500 nM
DERL-7 (IL-2 2.5 ng/mL) [2]	2.41	-1.56	-3.11	9.25	29.7
IMC-1 (IL-2 20 ng/mL) [4]	-4.78	-3.11	0.96	2.27	5.47
KAI3 (IL-2 2.5 ng/mL) [6]	-11.8	-3.4	2.23	-8.56	32.2
KHYG-1 (IL-2 2.5 ng/mL) [11]	-8.68	0.53	6.74	10.9	23
NK-92 (IL-2 2.5 ng/mL) [12]	2.93	2.6	5.94	-2.67	19.6
NK-YS (IL-2 2.5 ng/mL) [13]	-6.95	-1.93	3.17	-3.19	18.9
NKL (IL-2 2.5 ng/mL) [5]	3.67	6.42	10.9	12.7	31.9
SNK-6 (IL-2 2.5 ng/mL) [10]	2.11	-9.82	10.9	4.05	52
YT (IL-2 2.5 ng/mL) [3]	-4.2	0.69	4.57	-4.39	2.68
[1]	-7.06	-1.95	-4.05	11.7	18.2
[7]	-1.24	11.4	11.7	-5.48	13.2
[8]	-10.4	-4.9	-10.6	-4.54	17.3
[9]	-6.09	-6.32	12.8	7.6	21.9
[14]	-5.27	-3.13	-1.92	7.54	31.2

Conditions	drug sensitivity score
DERL-7 (IL-2 2.5 ng/mL) [16]	2.59
IMC-1 (IL-2 20 ng/mL) [18]	0
KAI3 (IL-2 2.5 ng/mL) [20]	1.06
KHYG-1 (IL-2 2.5 ng/mL) [25]	1.61
NK-92 (IL-2 2.5 ng/mL) [26]	0.43
NK-YS (IL-2 2.5 ng/mL) [27]	0.37
NKL (IL-2 2.5 ng/mL) [19]	3.11
SNK-6 (IL-2 2.5 ng/mL) [24]	3.39
YT (IL-2 2.5 ng/mL) [17]	0
[15]	1.51
[21]	0.05
[22]	0.25
[23]	1.36
[28]	2.54

Cn1cnc2c(F)c(Nc3ccc(Br)cc3Cl)c(C(=O)NOCCO)cc21 [Selumetinib] (max concentration tested 10000 nM)
percent inhibition of viability [%]
Conditions	1 nM	10 nM	100 nM	1000 nM	10000 nM
DERL-7 (IL-2 2.5 ng/mL) [2]	-4.06	8.89	24.4	38.2	51.5
IMC-1 (IL-2 20 ng/mL) [4]	-12.4	-11.4	-5.26	-4.59	17.3
KAI3 (IL-2 2.5 ng/mL) [6]	6.76	0.73	4.04	12.1	29.3
KHYG-1 (IL-2 2.5 ng/mL) [11]	1.06	-1.54	13.7	34.2	61.1
NK-92 (IL-2 2.5 ng/mL) [12]	2.8	1.89	-10.2	-8.53	36.1
NK-YS (IL-2 2.5 ng/mL) [13]	5.92	-5.87	0.1	1.88	27.9
NKL (IL-2 2.5 ng/mL) [5]	-4.4	-0.32	26.8	39	72.7
SNK-6 (IL-2 2.5 ng/mL) [10]	-18.1	-10.6	-25.8	-31.2	-26.9
YT (IL-2 2.5 ng/mL) [3]	2.15	-4.23	-5.27	-0.32	16.7
[1]	-5.33	-3.66	-3.4	-0.06	16.8
[7]	-1.79	-0.33	21.2	18.2	16.7
[8]	-4.68	-3.55	18.9	23.4	19.1
[9]	-5.55	-8.58	-1.51	-0.3	13.4
[14]	-9.3	-7.88	3.43	19.3	18.2

Conditions	drug sensitivity score
DERL-7 (IL-2 2.5 ng/mL) [16]	10.2
IMC-1 (IL-2 20 ng/mL) [18]	0.24
KAI3 (IL-2 2.5 ng/mL) [20]	2.27
KHYG-1 (IL-2 2.5 ng/mL) [25]	7.98
NK-92 (IL-2 2.5 ng/mL) [26]	1.3
NK-YS (IL-2 2.5 ng/mL) [27]	1.42
NKL (IL-2 2.5 ng/mL) [19]	10.8
SNK-6 (IL-2 2.5 ng/mL) [24]	0
YT (IL-2 2.5 ng/mL) [17]	0.33
[15]	0.36
[21]	5.28
[22]	5.53
[23]	0.11
[28]	2.98

O=C(/C=C\n1cnc(-c2cc(C(F)(F)F)cc(C(F)(F)F)c2)n1)NNc1cnccn1 [Selinexor] (max concentration tested 10000 nM)
percent inhibition of viability [%]
Conditions	1 nM	10 nM	100 nM	1000 nM	10000 nM
DERL-7 (IL-2 2.5 ng/mL) [2]	-2.69	16.9	59.3	89.7	99.2
IMC-1 (IL-2 20 ng/mL) [4]	-4.46	1.62	-10.9	86.9	100
KAI3 (IL-2 2.5 ng/mL) [6]	-3.28	4.63	52.6	93.7	106
KHYG-1 (IL-2 2.5 ng/mL) [11]	0.08	3.04	35.7	93.3	102
NK-92 (IL-2 2.5 ng/mL) [12]	-2.59	-2.77	33.9	90.6	101
NK-YS (IL-2 2.5 ng/mL) [13]	-3.45	3.74	39	77.4	95.4
NKL (IL-2 2.5 ng/mL) [5]	-4.23	11	42.8	76.3	87.8
SNK-6 (IL-2 2.5 ng/mL) [10]	-0.01	17.6	63.9	81.6	93.4
YT (IL-2 2.5 ng/mL) [3]	3.93	13.2	61.2	91.8	104
[1]	4.95	27.1	55.3	96.5	101
[7]	-3.27	25.6	77.9	87.5	93.1
[8]	3.58	9.52	57.5	87.9	98.6
[9]	-6.17	1.79	59.1	88.1	99.8
[14]	-5.72	14.1	65.8	89.2	97.1

Conditions	drug sensitivity score
DERL-7 (IL-2 2.5 ng/mL) [16]	25
IMC-1 (IL-2 20 ng/mL) [18]	15.5
KAI3 (IL-2 2.5 ng/mL) [20]	23.9
KHYG-1 (IL-2 2.5 ng/mL) [25]	21.3
NK-92 (IL-2 2.5 ng/mL) [26]	20.8
NK-YS (IL-2 2.5 ng/mL) [27]	19.4
NKL (IL-2 2.5 ng/mL) [19]	19.9
SNK-6 (IL-2 2.5 ng/mL) [24]	25.1
YT (IL-2 2.5 ng/mL) [17]	25.4
[15]	25.9
[21]	29
[22]	24.1
[23]	24.6
[28]	26
